Values quoted from earlier work in PMC5742115, “Pharmacophore Modeling and in Silico/in Vitro Screening for Human Cytochrome P450 11B1 and Cytochrome P450 11B2 Inhibitors” (Frontiers in Chemistry, 2017).
Where two headings read alike, the source gives them in different places.

Experiments:
[1] = tested on: CYP11B1; details: reported activity, supplementary Table 1, read-out: CYP11B1 IC50, cited from earlier work
[2] = tested on: CYP11B2; details: reported activity, supplementary Table 1, read-out: CYP11B2 IC50, cited from earlier work

Structure (SMILES): COc1ccc2cc(-c3cnccc3N)ccc2c1 [CHEMBL453169]
- IC50 ([1]; ref Heim et al., 2008): 1520 nM
- IC50 ([2]; ref Heim et al., 2008): 13 nM

Structure (SMILES): O=C1CCc2cc(Cc3cccnc3)cc3c2N1CC3 [CHEMBL2312965]
- IC50 ([1]; ref Yin et al., 2013): 16 nM
- IC50 ([2]; ref Yin et al., 2013): 74 nM

Structure (SMILES): COCc1cncc(-c2ccc3cc(OC)ccc3c2)c1 [CHEMBL500421]
- IC50 ([1]; ref Heim et al., 2008): 31 nM
- IC50 ([2]; ref Heim et al., 2008): 0.2 nM

Structure (SMILES): COC(C)(C)c1cncc(-c2ccc3c(c2)CCc2nnc(C)n2-3)c1 [CHEMBL2331704]
- IC50 ([1]; ref Blass, 2013a): 108 nM
- IC50 ([2]; ref Blass, 2013a): 5 nM

Structure (SMILES): COc1cncc(-c2ccc3c(c2)CCC(=O)C3)c1 [CHEMBL499007]
- IC50 ([1]; ref Lucas et al., 2008b): 191 nM
- IC50 ([2]; ref Lucas et al., 2008b): 1.8 nM

Structure (SMILES): Clc1ccc(Cn2cncc2-c2ccccc2)cc1 [CHEMBL597101]
- IC50 ([1]; ref Roumen et al., 2010): 25 nM
- IC50 ([2]; ref Roumen et al., 2010): 5.8 nM

Structure (SMILES): C(=C1/CCCc2ccccc21)/c1cccnc1 [CHEMBL193606]
- IC50 ([1]; ref Ulmschneider et al., 2005a): 715 nM
- IC50 ([2]; ref Ulmschneider et al., 2005a): 22 nM

Structure (SMILES): c1cn(CC23CC4CC(CC(C4)C2)C3)cn1 [CHEMBL1651505]
- IC50 ([1]; ref Hille et al., 2011b): 5 nM
- IC50 ([2]; ref Hille et al., 2011b): 30 nM

Structure (SMILES): Brc1ncccc1Cn1ccnc1 [CHEMBL2011242]
- IC50 ([1]; ref Hille et al., 2011a): 61 nM
- IC50 ([2]; ref Hille et al., 2011a): 911 nM

Structure (SMILES): c1ccc(-c2nc3ncc[nH]c-3n2)nc1 [CHEMBL201143]
- IC50 ([1]; ref Hille et al., 2011a): 16 nM
- IC50 ([2]; ref Hille et al., 2011a): 251 nM

Structure (SMILES): S=C1CCc2cc(-c3cccnc3)cc3c2N1CC3 [CHEMBL1765232]
- IC50 ([1]; ref Lucas et al., 2011): 333 nM
- IC50 ([2]; ref Lucas et al., 2011): 1.2 nM

Structure (SMILES): COc1cccc(-c2cncc(-c3cc4c5c(c3)CCN5C(=O)CC4)c2)c1 [CHEMBL1765227]
- IC50 ([1]; ref Lucas et al., 2011): 1370 nM
- IC50 ([2]; ref Lucas et al., 2011): 4.6 nM

Structure (SMILES): O=C1CCc2cc(C(c3cccc(F)c3)n3ccnc3)cc3c2N1CC3 (stereo not shown) [CHEMBL2163643]
- IC50 ([1]; ref Yin et al., 2012): 29 nM
- IC50 ([2]; ref Yin et al., 2012): 18 nM

Structure (SMILES): OCCCc1cncn1Cc1ccc(Cl)cc1 [CHEMBL598606]
- IC50 ([1]; ref Roumen et al., 2010): 44 nM
- IC50 ([2]; ref Roumen et al., 2010): 55 nM

Structure (SMILES): S=C1CCc2cc(-c3cccnc3)ccc2N1 [CHEMBL511329]
- IC50 ([1]; ref Lucas et al., 2008b): 580 nM
- IC50 ([2]; ref Lucas et al., 2008b): 3.1 nM

Structure (SMILES): Brc1ccc2cc(-c3cccnc3)ccc2c1 [CHEMBL193534]
- IC50 ([1]; ref Voets et al., 2005): 2940 nM
- IC50 ([2]; ref Voets et al., 2005): 15 nM

Structure (SMILES): CCC(c1ccc(-c2ccccc2)nc1)n1ccnc1 (stereo not shown) [CHEMBL2417620]
- IC50 ([1]; ref Emmerich et al., 2013): 28 nM
- IC50 ([2]; ref Emmerich et al., 2013): 92 nM

Structure (SMILES): N#Cc1ccc(Cn2cncc2-c2ccccc2F)cc1 [CHEMBL599603]
- IC50 ([1]; ref Roumen et al., 2010): 20 nM
- IC50 ([2]; ref Roumen et al., 2010): 2.3 nM

Structure (SMILES): O=C1CCc2cc(-c3cncc(O)c3)cc3c2N1CC3 [CHEMBL1765211]
- IC50 ([1]; ref Lucas et al., 2011): 2040 nM
- IC50 ([2]; ref Lucas et al., 2011): 4.3 nM

Structure (SMILES): COCc1ccncc1-c1ccc2cc(OC)ccc2c1 [CHEMBL500676]
- IC50 ([1]; ref Heim et al., 2008): 435 nM
- IC50 ([2]; ref Heim et al., 2008): 2.2 nM

Structure (SMILES): O=C1CCc2cc(-c3cncc(-c4ccc(F)cc4)c3)cc3c2N1CC3 [CHEMBL1765222]
- IC50 ([1]; ref Lucas et al., 2011): 40 nM
- IC50 ([2]; ref Lucas et al., 2011): 0.9 nM

Structure (SMILES): Clc1ccc2c(c1)CC/C2=C/c1ccncc1 [CHEMBL175799]
- IC50 ([1]; ref Ulmschneider et al., 2005a): 301 nM
- IC50 ([2]; ref Ulmschneider et al., 2005a): 36 nM

Structure (SMILES): Cc1ccccc1-c1cncn1Cc1ccc(C#N)cc1 [CHEMBL610513]
- IC50 ([1]; ref Roumen et al., 2010): 5.7 nM
- IC50 ([2]; ref Roumen et al., 2010): 3.7 nM

Structure (SMILES): Brc1ccc2c(c1)CC/C2=C\c1ccncc1 [CHEMBL366773]
- IC50 ([1]; ref Ulmschneider et al., 2005a): 2640 nM
- IC50 ([2]; ref Ulmschneider et al., 2005a): 24 nM

Structure (SMILES): N#Cc1ccc(Cn2cncc2-c2cccc(F)c2)cc1 [CHEMBL598789]
- IC50 ([1]; ref Roumen et al., 2010): 32 nM
- IC50 ([2]; ref Roumen et al., 2010): 5.5 nM

Structure (SMILES): O=C1CCc2cc(-c3cncc(-c4cccc(O)c4)c3)cc3c2N1CC3 [CHEMBL1765229]
- IC50 ([1]; ref Lucas et al., 2011): 44 nM
- IC50 ([2]; ref Lucas et al., 2011): 1.2 nM

Structure (SMILES): OCCCc1cncn1Cc1ccc(F)cc1 [CHEMBL591465]
- IC50 ([1]; ref Roumen et al., 2010): 116 nM
- IC50 ([2]; ref Roumen et al., 2010): 16 nM

Structure (SMILES): COC(=O)CCc1cncn1Cc1ccc(F)cc1 [CHEMBL599622]
- IC50 ([1]; ref Roumen et al., 2010): 104 nM
- IC50 ([2]; ref Roumen et al., 2010): 50 nM
